These results are taken from US20030153546A1, “Microbicidal effect of prophyrines in darkness” (priority 1999, published 2003).

Molecules are shown by their SMILES.

Common to all, as to format: cell-based
Assay [1] deals with S. aureus cells. The experiment in a line: Inhibition of growth of S. aureus cells after 5-minute incubation in the dark (optical density at 650 nm). Particulars: growth at 37° C. Here is the method: (§1) For this, porphyrines of different chemical structures (see drawing) were incubated with E. coli and S. aureus cells in the dark. The porphyrines were added to aqueous suspension comprising an amount of bacterial cells of 10^8 per ml and stored for 5 minutes in the dark. Finally, the amount of porphyrine bonded to the cells was measured depending on the number of washing […] (the washing was carried out by means of physiological solutions) by chemical extraction followed spectrophotofluorimetric determination.
(§2) The survival rate of the bacterial cells after incubation with the different porphyrines was determined by diluting 0.3 ml of the suspension with 2.7 ml of the culture medium and recording the optical density at 650 nm depending on the time. The suspensions were kept at 37° C. The percentual inhibition of growth was calculated with reference to a suspension of comparative cells which had been treated with the same method, however had not been added to the porphyrine.

Assay [2] has as its system E. coli cells. Put plainly: Inhibition of growth of E. coli cells after 5-minute incubation in the dark (optical density at 650 nm). Particulars: growth at 37° C. Here is the method: as §1, §2
Assay [3] has as its system E. coli cells. Put plainly: Recovery of porphyrine bonded to E. coli cells after dark incubation and washing steps. Particulars: 1 μM porphyrine, 5 minutes. The procedure:
as §1

For assay [4], the system named is S. aureus cells. The experiment in a line: Recovery of porphyrine bonded to S. aureus cells after dark incubation and washing steps. Particulars: 1 μM porphyrine, 5 minutes in the dark. Here is the method: as §1

With `CCCCCCCCCCCCCC[n+]1ccc(-c2c3nc(c(-c4cc[n+](C)cc4)c4ccc([nH]4)c(-c4cc[n+](C)cc4)c4nc(c(-c5cc[n+](C)cc5)c5ccc2[nH]5)C=C4)C=C3)cc1` [mono-C14], in the assay with S. aureus cells [1] (1 μM porphyrine), the “inhibition of growth (%) S. aureus” value worked out at 69.1%. Further, the “inhibition of growth (%) S. aureus” value in the assay on S. aureus cells [1] (10 μM porphyrine) came to 92.4%. Also, the “inhibition of growth (%) E. coli” value in the assay on E. coli cells [2] (1 μM porphyrine) was found to be 46.1%. For the same molecule, the “inhibition of growth (%) E. coli” value in the assay on E. coli cells [2] (10 μM porphyrine) is on record as 100%. For the same molecule, in the assay with E. coli cells [3], the “recovery (nmol/mg protein) 1 washing step” value is 3.06 ± 0.25 nmol/mg protein, the “recovery (nmol/mg protein) 3 washing steps” value worked out at 2.28 ± 0.04 nmol/mg protein, the “% bonded after 3 washing steps” value is listed as 42.4% and the “recovery (nmol/mg protein) no washing” value is 5.38 ± 0.06 nmol/mg protein. Further, in the assay with S. aureus cells [4], the “recovery (nmol/mg protein) 1 washing step” value is listed as 5.53 ± 0.74 nmol/mg protein, the “recovery (nmol/mg protein) 3 washing steps” value is listed as 4.32 ± 0.13 nmol/mg protein, the “% bonded after 3 washing steps” value is given as 65.9% and the “recovery (nmol/mg protein) no washing” value was 6.56 ± 0.40 nmol/mg protein.
Turning to `CCCCCC[n+]1ccc(-c2c3nc(c(-c4cc[n+](CCCCCC)cc4)c4ccc([nH]4)c(-c4cc[n+](CCCCCC)cc4)c4nc(c(-c5cc[n+](CCCCCC)cc5)c5ccc2[nH]5)C=C4)C=C3)cc1` [tetra-C6], in the assay on E. coli cells [3], the “recovery (nmol/mg protein) 1 washing step” value is recorded as 1.39 ± 0.23 nmol/mg protein, the “recovery (nmol/mg protein) 3 washing steps” value is 0.94 ± 0.24 nmol/mg protein, the “% bonded after 3 washing steps” value is 57.0% and the “recovery (nmol/mg protein) no washing” value is on record as 1.65 ± 0.17 nmol/mg protein.
For `CCCCCC[n+]1ccc(-c2c3nc(c(-c4cc[n+](C)cc4)c4ccc([nH]4)c(-c4cc[n+](C)cc4)c4nc(c(-c5cc[n+](C)cc5)c5ccc2[nH]5)C=C4)C=C3)cc1` [mono-C6], the “inhibition of growth (%) S. aureus” value is given as 5.1% in the assay on S. aureus cells [1] (1 μM porphyrine) and 8.8% in the assay on S. aureus cells [1] (10 μM porphyrine). In addition, the “inhibition of growth (%) E. coli” value in the assay on E. coli cells [2] (1 μM porphyrine) stood at 0.5%; with E. coli cells [2] (10 μM porphyrine), 14.6%. Moreover, the “recovery (nmol/mg protein) 1 washing step” value in the assay on E. coli cells [3] is reported as 1.01 ± 0.12 nmol/mg protein; in the assay with S. aureus cells [4], 2.05 ± 0.11 nmol/mg protein. The “recovery (nmol/mg protein) 3 washing steps” value amounted to 0.39 ± 0.12 nmol/mg protein in the assay with E. coli cells [3] and 1.02 ± 0.12 nmol/mg protein in the assay on S. aureus cells [4]. The “% bonded after 3 washing steps” value in the assay with E. coli cells [3] came to 24.7%; in the assay with S. aureus cells [4] it was 33.6%. The “recovery (nmol/mg protein) no washing” value is on record as 1.58 ± 0.28 nmol/mg protein in the assay with E. coli cells [3] and 3.04 ± 0.05 nmol/mg protein in the assay on S. aureus cells [4].
Regarding `C[n+]1ccc(-c2c3nc(c(-c4cc[n+](C)cc4)c4ccc([nH]4)c(-c4cc[n+](C)cc4)c4nc(c(-c5cc[n+](C)cc5)c5ccc2[nH]5)C=C4)C=C3)cc1` [T4MPyP], the “inhibition of growth (%) S. aureus” value in the assay with S. aureus cells [1] (1 μM porphyrine) worked out at 3.1%; in the assay on S. aureus cells [1] (10 μM porphyrine), 7.8%. Further, the “inhibition of growth (%) E. coli” value in the assay on E. coli cells [2] (1 μM porphyrine) was found to be 0.6%; with E. coli cells [2] (10 μM porphyrine), 3.1%. Further, the “recovery (nmol/mg protein) 1 washing step” value with E. coli cells [3] was found to be 0.19 ± 0.04 nmol/mg protein; in the assay on S. aureus cells [4], 0.10 ± 0.01 nmol/mg protein. The “recovery (nmol/mg protein) 3 washing steps” value in the assay on E. coli cells [3] was 0.05 ± 0.01 nmol/mg protein; in the assay on S. aureus cells [4], 0.11 ± 0.01 nmol/mg protein. Moreover, the “% bonded after 3 washing steps” value is 11.4% with E. coli cells [3] and 16.2% in the assay with S. aureus cells [4]. Also, the “recovery (nmol/mg protein) no washing” value in the assay with E. coli cells [3] is on record as 0.44 ± 0.04 nmol/mg protein; with S. aureus cells [4], 0.68 ± 0.05 nmol/mg protein.
As for `CCCCCCCCCC[n+]1ccc(-c2c3nc(c(-c4cc[n+](C)cc4)c4ccc([nH]4)c(-c4cc[n+](C)cc4)c4nc(c(-c5cc[n+](C)cc5)c5ccc2[nH]5)C=C4)C=C3)cc1` [mono-C10], the “inhibition of growth (%) S. aureus” value with S. aureus cells [1] (1 μM porphyrine) amounted to 27.8%. Besides, the “inhibition of growth (%) S. aureus” value in the assay on S. aureus cells [1] (10 μM porphyrine) came to 50%. In the assay with E. coli cells [2] (1 μM porphyrine), the “inhibition of growth (%) E. coli” value is 4.6%. Further, the “inhibition of growth (%) E. coli” value in the assay on E. coli cells [2] (10 μM porphyrine) was found to be 10.7%. Also, in the assay on E. coli cells [3], the “recovery (nmol/mg protein) 1 washing step” value amounted to 2.78 ± 0.53 nmol/mg protein, the “recovery (nmol/mg protein) 3 washing steps” value was found to be 1.48 ± 0.38 nmol/mg protein, the “% bonded after 3 washing steps” value stood at 40.4% and the “recovery (nmol/mg protein) no washing” value is 3.66 ± 0.071 nmol/mg protein. Moreover, in the assay with S. aureus cells [4], the “recovery (nmol/mg protein) 1 washing step” value was determined as 5.70 ± 0.54 nmol/mg protein, the “recovery (nmol/mg protein) 3 washing steps” value is listed as 4.09 ± 0.13 nmol/mg protein, the “% bonded after 3 washing steps” value worked out at 57.4% and the “recovery (nmol/mg protein) no washing” value came to 7.13 ± 0.25 nmol/mg protein.
Take `CCCCCCCCCCCCCCCCCCCCCC[n+]1ccc(-c2c3nc(c(-c4cc[n+](C)cc4)c4ccc([nH]4)c(-c4cc[n+](C)cc4)c4nc(c(-c5cc[n+](C)cc5)c5ccc2[nH]5)C=C4)C=C3)cc1` [mono-C22]: the “inhibition of growth (%) S. aureus” value with S. aureus cells [1] (1 μM porphyrine) was determined as 39.9%. Besides, the “inhibition of growth (%) S. aureus” value with S. aureus cells [1] (10 μM porphyrine) worked out at 70.1%. Besides, in the assay with E. coli cells [2] (1 μM porphyrine), the “inhibition of growth (%) E. coli” value is 19.1%. Also, in the assay with E. coli cells [2] (10 μM porphyrine), the “inhibition of growth (%) E. coli” value was 16.8%. Moreover, in the assay on E. coli cells [3], the “recovery (nmol/mg protein) 1 washing step” value is recorded as 2.60 ± 0.04 nmol/mg protein, the “recovery (nmol/mg protein) 3 washing steps” value is on record as 3.04 ± 0.34 nmol/mg protein, the “% bonded after 3 washing steps” value was determined as 59.4% and the “recovery (nmol/mg protein) no washing” value was determined as 5.12 ± 0.46 nmol/mg protein. In the assay with S. aureus cells [4], the “recovery (nmol/mg protein) 1 washing step” value is 5.65 ± 0.13 nmol/mg protein, the “recovery (nmol/mg protein) 3 washing steps” value turned out to be 4.95 ± 0.30 nmol/mg protein, the “% bonded after 3 washing steps” value worked out at 77.5% and the “recovery (nmol/mg protein) no washing” value amounted to 6.39 ± 0.40 nmol/mg protein.
Take `C[n+]1ccc(-c2c3nc(c(-c4cc[n+](C)cc4)c4ccc([nH]4)c(-c4cc[n+](Cc5ccccc5)cc4)c4nc(c(-c5cc[n+](C)cc5)c5ccc2[nH]5)C=C4)C=C3)cc1` [mono-benzyl]: the “inhibition of growth (%) S. aureus” value in the assay on S. aureus cells [1] (1 μM porphyrine) worked out at 1.6%. Besides, the “inhibition of growth (%) S. aureus” value in the assay on S. aureus cells [1] (10 μM porphyrine) came out at 25%. Moreover, in the assay with E. coli cells [2] (1 μM porphyrine), the “inhibition of growth (%) E. coli” value was 0.1%. In addition, in the assay on E. coli cells [2] (10 μM porphyrine), the “inhibition of growth (%) E. coli” value came to 13%. Besides, in the assay with E. coli cells [3], the “recovery (nmol/mg protein) 1 washing step” value worked out at 1.67 ± 0.06 nmol/mg protein, the “recovery (nmol/mg protein) 3 washing steps” value is recorded as 0.71 ± 0.08 nmol/mg protein, the “% bonded after 3 washing steps” value came to 28.2% and the “recovery (nmol/mg protein) no washing” value is on record as 2.52 ± 0.13 nmol/mg protein.
As to `CCCCCCCCCCCCCCCCCC[n+]1ccc(-c2c3nc(c(-c4cc[n+](C)cc4)c4ccc([nH]4)c(-c4cc[n+](C)cc4)c4nc(c(-c5cc[n+](C)cc5)c5ccc2[nH]5)C=C4)C=C3)cc1` [mono-C18], the “inhibition of growth (%) S. aureus” value in the assay on S. aureus cells [1] (1 μM porphyrine) came to 39.8%. The “inhibition of growth (%) S. aureus” value in the assay on S. aureus cells [1] (10 μM porphyrine) was determined as 96.6%. Further, the “inhibition of growth (%) E. coli” value with E. coli cells [2] (1 μM porphyrine) came out at 2.7%. In the assay with E. coli cells [2] (10 μM porphyrine), the “inhibition of growth (%) E. coli” value was determined as 85.7%. In the assay on E. coli cells [3], the “recovery (nmol/mg protein) 1 washing step” value stood at 4.08 ± 0.62 nmol/mg protein, the “recovery (nmol/mg protein) 3 washing steps” value is 2.54 ± 0.38 nmol/mg protein, the “% bonded after 3 washing steps” value worked out at 60.5% and the “recovery (nmol/mg protein) no washing” value is reported as 4.20 ± 0.16 nmol/mg protein.
